{"source": "patent US10738028B2", "about": "“Spiro three-membered ring, spiro five-membered ring peptide deformylase inhibitor and use thereof in antibacteria and anti-tumor” (priority 2016, dated 2020)", "assay_type_in_all_cases": "cell-based", "key": {"[1]": {"tested_on": "Streptococcus pneoumoniae (SPN)", "assay": "MIC, two-fold agar dilution (CLSI), clinical isolates", "outline": "(§1)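 Test samples were assayed by the CLSI-recommended two-fold agar dilution method, and the minimum inhibitory concentration against each tested strain was determined.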"}, "[2]": {"tested_on": "Enterococcus faecium (EFM)", "assay": "MIC, two-fold agar dilution (CLSI), clinical isolates", "outline": "as §1"}, "[3]": {"tested_on": "methicillin-resistant Staphylococcus epidermidis (MRSE)", "assay": "MIC, two-fold agar dilution (CLSI), clinical isolates", "outline": "as §1"}, "[4]": {"tested_on": "methicillin-sensitive Staphylococcus aureus (MSSA)", "assay": "MIC, two-fold agar dilution (CLSI), clinical isolates", "outline": "as §1"}, "[5]": {"tested_on": "methicillin-resistant Staphylococcus aureus (MRSA)", "assay": "MIC, two-fold agar dilution (CLSI), clinical isolates", "outline": "as §1"}, "[6]": {"tested_on": "methicillin-sensitive Staphylococcus epidermidis (MSSE)", "assay": "MIC, two-fold agar dilution (CLSI), clinical isolates", "outline": "as §1"}, "[7]": {"tested_on": "Moraxella catarrhalis (BCA)", "assay": "MIC, two-fold agar dilution (CLSI), clinical isolates", "outline": "as §1"}, "[8]": {"tested_on": "Escherichia coli (including ESBLs, non-ESBLs)", "assay": "MIC, two-fold agar dilution (CLSI), clinical isolates", "outline": "as §1"}, "[9]": {"tested_on": "Enterococcus faecalis (EFA)", "assay": "MIC, two-fold agar dilution (CLSI), clinical isolates", "outline": "as §1"}, "[10]": {"tested_on": "HCT-116 colorectal cancer cell line", "assay": "CCK-8 proliferation inhibition", "conditions": "Homo sapiens, HCT-116, 72 h, concentration of 30 μM; 72 hours; CCK-8; read-out: HCT116 inhibition rate/%", "outline": "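Cells seeded at 2000 cells/well, cultured overnight at 37 °C, 5% CO2, then exposed to compound (DMSO; control 1‰ DMSO) for 72 h in McCoy's 5A with 10% newborn bovine serum. Viability read with 1:10 diluted CCK-8.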"}}}
{"molecule": "CCCC[C@H](CC(=O)NO)C(=O)N1CC2(CC2)C[C@H]1C(=O)NC1CC1", "note": "[Example 50, (S)—N-cyclopropyl-5-((R)-2-(2-(hydroxyamino)-2-oxoethyl)hexanoyl)-5-azaspiro[2.4]heptane-6-carboxamide]", "values": [{"measurement": "Anti-bacterial activity (MIC), strain SPN 16-2", "setting": "[1]; clinical isolate SPN 16-2", "result": "> 32", "unit": "µg/mL"}, {"measurement": "Anti-bacterial activity (MIC), strain SPN 16-4", "setting": "[1]; clinical isolate SPN 16-4", "result": "> 32", "unit": "µg/mL"}, {"measurement": "Anti-bacterial activity (MIC), strain EFM 15-1", "setting": "[2]; clinical isolate EFM 15-1", "result": "> 32", "unit": "µg/mL"}, {"measurement": "Anti-bacterial activity (MIC), strain EFM 15-2", "setting": "[2]; clinical isolate EFM 15-2", "result": "> 32", "unit": "µg/mL"}, {"measurement": "Anti-bacterial activity (MIC), strain EFM 15-3", "setting": "[2]; clinical isolate EFM 15-3", "result": "> 32", "unit": "µg/mL"}, {"measurement": "Anti-bacterial activity (MIC), strain EFM 15-4", "setting": "[2]; clinical isolate EFM 15-4", "result": "> 32", "unit": "µg/mL"}, {"measurement": "Anti-bacterial activity (MIC), strain EFM 15-5", "setting": "[2]; clinical isolate EFM 15-5", "result": "> 32", "unit": "µg/mL"}, {"measurement": "Anti-bacterial activity (MIC), strain EFM 15-6", "setting": "[2]; clinical isolate EFM 15-6", "result": "> 32", "unit": "µg/mL"}, {"measurement": "Anti-bacterial activity (MIC), strain MRSE 15-1", "setting": "[3]; clinical isolate MRSE 15-1", "result": "> 32", "unit": "µg/mL"}, {"measurement": "Anti-bacterial activity (MIC), strain MRSE 15-2", "setting": "[3]; clinical isolate MRSE 15-2", "result": "> 32", "unit": "µg/mL"}, {"measurement": "Anti-bacterial activity (MIC), strain MRSE 15-3", "setting": "[3]; clinical isolate MRSE 15-3", "result": "> 32", "unit": "µg/mL"}, {"measurement": "Anti-bacterial activity (MIC), strain MRSE 15-7", "setting": "[3]; clinical isolate MRSE 15-7", "result": "> 32", "unit": "µg/mL"}, {"measurement": "Anti-bacterial activity (MIC), strain MSSA 15-3", "setting": "[4]; clinical isolate MSSA 15-3", "result": "> 32", "unit": "µg/mL"}, {"measurement": "Anti-bacterial activity (MIC), strain MSSA 15-4", "setting": "[4]; clinical isolate MSSA 15-4", "result": "> 32", "unit": "µg/mL"}, {"measurement": "Anti-bacterial activity (MIC), strain MSSA 15-5", "setting": "[4]; clinical isolate MSSA 15-5", "result": "> 32", "unit": "µg/mL"}, {"measurement": "Anti-bacterial activity (MIC), strain MSSA 15-6", "setting": "[4]; clinical isolate MSSA 15-6", "result": "> 32", "unit": "µg/mL"}, {"measurement": "Anti-bacterial activity (MIC), strain MRSA 15-1", "setting": "[5]; clinical isolate MRSA 15-1", "result": "> 23", "unit": "µg/mL"}, {"measurement": "Anti-bacterial activity (MIC), strain MRSA 15-2", "setting": "[5]; clinical isolate MRSA 15-2", "result": "> 32", "unit": "µg/mL"}, {"measurement": "Anti-bacterial activity (MIC), strain MRSA 15-3", "setting": "[5]; clinical isolate MRSA 15-3", "result": "> 32", "unit": "µg/mL"}, {"measurement": "Anti-bacterial activity (MIC), strain MRSA 15-4", "setting": "[5]; clinical isolate MRSA 15-4", "result": "> 32", "unit": "µg/mL"}, {"measurement": "Anti-bacterial activity (MIC), strain MSSE 15-3", "setting": "[6]; clinical isolate MSSE 15-3", "result": "> 32", "unit": "µg/mL"}, {"measurement": "Anti-bacterial activity (MIC), strain MSSE 15-4", "setting": "[6]; clinical isolate MSSE 15-4", "result": "> 32", "unit": "µg/mL"}, {"measurement": "Anti-bacterial activity (MIC), strain MSSE 15-5", "setting": "[6]; clinical isolate MSSE 15-5", "result": "> 32", "unit": "µg/mL"}, {"measurement": "Anti-bacterial activity (MIC), strain MSSE 15-6", "setting": "[6]; clinical isolate MSSE 15-6", "result": "> 32", "unit": "µg/mL"}, {"measurement": "Anti-bacterial activity (MIC), strain BCA 14-1", "setting": "[7]; clinical isolate BCA 14-1", "result": "> 32", "unit": "µg/mL"}, {"measurement": "Anti-bacterial activity (MIC), strain BCA 14-4", "setting": "[7]; clinical isolate BCA 14-4", "result": "> 32", "unit": "µg/mL"}, {"measurement": "Anti-bacterial activity (MIC), strain BCA 14-5", "setting": "[7]; clinical isolate BCA 14-5", "result": "> 32", "unit": "µg/mL"}, {"measurement": "Anti-bacterial activity (MIC), strain BCA 14-6", "setting": "[7]; clinical isolate BCA 14-6", "result": "> 32", "unit": "µg/mL"}, {"measurement": "Anti-bacterial activity (MIC), strain BCA 14-7", "setting": "[7]; clinical isolate BCA 14-7", "result": "> 32", "unit": "µg/mL"}, {"measurement": "Anti-bacterial activity (MIC), strain BCA 14-8", "setting": "[7]; clinical isolate BCA 14-8", "result": "> 32", "unit": "µg/mL"}, {"measurement": "Anti-bacterial activity (MIC), strain BCA 14-10", "setting": "[7]; clinical isolate BCA 14-10", "result": "> 32", "unit": "µg/mL"}, {"measurement": "Anti-bacterial activity (MIC), strain ECO+ 15-1", "setting": "[8]; clinical isolate ECO+ 15-1", "result": "> 32", "unit": "µg/mL"}, {"measurement": "Anti-bacterial activity (MIC), strain ECO+ 15-2", "setting": "[8]; clinical isolate ECO+ 15-2", "result": "> 32", "unit": "µg/mL"}, {"measurement": "Anti-bacterial activity (MIC), strain ECO+ 15-3", "setting": "[8]; clinical isolate ECO+ 15-3", "result": "> 32", "unit": "µg/mL"}, {"measurement": "Anti-bacterial activity (MIC), strain ECO+ 15-4", "setting": "[8]; clinical isolate ECO+ 15-4", "result": "> 32", "unit": "µg/mL"}, {"measurement": "Anti-bacterial activity (MIC), strain ECO− 15-1", "setting": "[8]; clinical isolate ECO− 15-1", "result": "> 32", "unit": "µg/mL"}, {"measurement": "Anti-bacterial activity (MIC), strain ECO− 15-2", "setting": "[8]; clinical isolate ECO− 15-2", "result": "> 32", "unit": "µg/mL"}, {"measurement": "Anti-bacterial activity (MIC), strain ECO− 15-3", "setting": "[8]; clinical isolate ECO− 15-3", "result": "> 32", "unit": "µg/mL"}, {"measurement": "Anti-bacterial activity (MIC), strain ECO− 15-4", "setting": "[8]; clinical isolate ECO− 15-4", "result": "> 32", "unit": "µg/mL"}, {"measurement": "Anti-bacterial activity (MIC), strain EFA 15-1", "setting": "[9]; clinical isolate EFA 15-1", "result": "> 32", "unit": "µg/mL"}, {"measurement": "Anti-bacterial activity (MIC), strain EFA 15-2", "setting": "[9]; clinical isolate EFA 15-2", "result": "> 32", "unit": "µg/mL"}, {"measurement": "Anti-bacterial activity (MIC), strain EFA 15-3", "setting": "[9]; clinical isolate EFA 15-3", "result": "> 32", "unit": "µg/mL"}, {"measurement": "Anti-bacterial activity (MIC), strain EFA 15-4", "setting": "[9]; clinical isolate EFA 15-4", "result": "> 32", "unit": "µg/mL"}, {"measurement": "Anti-bacterial activity (MIC), strain EFA 15-5", "setting": "[9]; clinical isolate EFA 15-5", "result": "> 32", "unit": "µg/mL"}, {"measurement": "Anti-bacterial activity (MIC), strain EFA 15-6", "setting": "[9]; clinical isolate EFA 15-6", "result": "> 32", "unit": "µg/mL"}, {"measurement": "Anti-bacterial activity (MIC), strain EFA 15-9", "setting": "[9]; clinical isolate EFA 15-9", "result": "> 32", "unit": "µg/mL"}, {"measurement": "inhibition at 30 µM", "setting": "[10]", "result": -11, "unit": "%"}]}
